# Measurements taken from PubChem BioAssay AID1963451 (Molecular Pharmacology Branch, DTP, NCI, 2024).
# Tested on: 521955-158-R6-J3-PDC complex spheroid growth, % test/control
# Test: Anticancer human tumor 521955-158-R6-J3-PDC patient-derived pancreatic carcinoma cell line growth inhibition [Asc]
# Conditions: for IC50: curve of first compound; for viability, T/C: stronger effect = lower value
# Outline: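 Complex solid-tumor spheroids incorporating human endothelial and mesenchymal stem cells received single agents or combinations over half-log dilution ranges anchored to clinical Cmax.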
# [1] = second compound 0.0316 µM, first compound 0.0316 µM
# [2] = second compound 0.0316 µM, first compound 0.1 µM
# [3] = second compound 0.0316 µM, first compound 0.316 µM
# [4] = second compound 0.0316 µM, first compound 1 µM
# [5] = second compound 0.1 µM, first compound 0.0316 µM
# [6] = second compound 0.1 µM, first compound 0.1 µM
# [7] = second compound 0.1 µM, first compound 0.316 µM
# [8] = second compound 0.1 µM, first compound 1 µM
# [9] = second compound 0.316 µM, first compound 0.0316 µM
# [10] = second compound 0.316 µM, first compound 0.1 µM
# [11] = second compound 0.316 µM, first compound 0.316 µM
# [12] = second compound 0.316 µM, first compound 1 µM
# [13] = second compound 1 µM, first compound 0.0316 µM
# [14] = second compound 1 µM, first compound 0.1 µM
# [15] = second compound 1 µM, first compound 0.316 µM
# [16] = second compound 1 µM, first compound 1 µM
# [17] = second compound 3.16 µM, first compound 0.0316 µM
# [18] = second compound 3.16 µM, first compound 0.1 µM
# [19] = second compound 3.16 µM, first compound 0.316 µM
# [20] = second compound 3.16 µM, first compound 1 µM
# [21] = second compound 10 µM, first compound 0.0316 µM
# [22] = second compound 10 µM, first compound 0.1 µM
# [23] = second compound 10 µM, first compound 0.316 µM
# [24] = second compound 10 µM, first compound 1 µM
# 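Also: spheroids exposed to compounds for 7 days.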
# 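For viability, T/C in this document: 100% = DMSO vehicle control wells.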
smiles,measurement,setting,value
C#Cc1c(F)ccc2cc(O)cc(-c3ncc4c(N5CC6CCC(C5)N6)nc(OCC56CCCN5CC(F)C6)nc4c3F)c12 (stereo unspecified) + Cc1c(S(C)(=O)=O)c(-c2cc(F)cc(N3CCN(c4ccc(NS(=O)(=O)c5ccc(NC(CCN6CCC(C(=O)OCCCP(=O)(O)O)CC6)CSc6ccccc6)c(S(=O)(=O)C(F)(F)F)c5)cc4)CC3)c2)c(-c2ccc(Cl)cc2)n1C(C)C,IC50,second compound 0.0316 µM,< 31.6 nM
same,IC50,second compound 0.1 µM,< 31.6 nM
same,IC50,second compound 0.316 µM,< 31.6 nM
same,IC50,second compound 1 µM,< 31.6 nM
same,IC50,second compound 3.16 µM,< 31.6 nM
same,IC50,second compound 10 µM,< 31.6 nM
same,"viability, T/C",[1],49.8%
same,"viability, T/C",[2],44.9%
same,"viability, T/C",[3],23.1%
same,"viability, T/C",[4],24%
same,"viability, T/C","second compound 0.0316 µM, first compound 3.16 µM",18.4%
same,"viability, T/C","second compound 0.0316 µM, first compound 10 µM",15.9%
same,"viability, T/C",[5],46.2%
same,"viability, T/C",[6],31.1%
same,"viability, T/C",[7],23.3%
same,"viability, T/C",[8],18.4%
same,"viability, T/C","second compound 0.1 µM, first compound 3.16 µM",17.8%
same,"viability, T/C","second compound 0.1 µM, first compound 10 µM",17.1%
same,"viability, T/C",[9],31.6%
same,"viability, T/C",[10],34.9%
same,"viability, T/C",[11],15.9%
same,"viability, T/C",[12],15.6%
same,"viability, T/C","second compound 0.316 µM, first compound 3.16 µM",11.6%
same,"viability, T/C","second compound 0.316 µM, first compound 10 µM",9.78%
same,"viability, T/C",[13],16.1%
same,"viability, T/C",[14],15.3%
same,"viability, T/C",[15],11.9%
same,"viability, T/C",[16],9.24%
same,"viability, T/C","second compound 1 µM, first compound 3.16 µM",7.76%
same,"viability, T/C","second compound 1 µM, first compound 10 µM",7.16%
same,"viability, T/C",[17],12.6%
same,"viability, T/C",[18],11.4%
same,"viability, T/C",[19],7.77%
same,"viability, T/C",[20],7.76%
same,"viability, T/C","second compound 3.16 µM, first compound 3.16 µM",6.82%
same,"viability, T/C","second compound 3.16 µM, first compound 10 µM",3.79%
same,"viability, T/C",[21],8.21%
same,"viability, T/C",[22],6.93%
same,"viability, T/C",[23],5%
same,"viability, T/C",[24],5.16%
same,"viability, T/C","second compound 10 µM, first compound 3.16 µM",3.49%
same,"viability, T/C","second compound 10 µM, first compound 10 µM",3.88%
CNC(C)C(=O)NC1CN(S(=O)(=O)c2cccc(S(=O)(=O)N3CCC4CCC(C(=O)NC(c5ccccc5)c5ccccc5)N4C(=O)C(NC(=O)C(C)NC)C3)c2)CCC2CCC(C(=O)NC(c3ccccc3)c3ccccc3)N2C1=O (stereo unspecified) + Cc1c(S(C)(=O)=O)c(-c2cc(F)cc(N3CCN(c4ccc(NS(=O)(=O)c5ccc(NC(CCN6CCC(C(=O)OCCCP(=O)(O)O)CC6)CSc6ccccc6)c(S(=O)(=O)C(F)(F)F)c5)cc4)CC3)c2)c(-c2ccc(Cl)cc2)n1C(C)C,IC50,second compound 0.0316 µM,> 1000 nM
same,IC50,second compound 0.1 µM,> 1000 nM
same,IC50,second compound 0.316 µM,5.02 nM
same,IC50,second compound 1 µM,< 3.16 nM
same,IC50,second compound 3.16 µM,< 3.16 nM
same,IC50,second compound 10 µM,< 3.16 nM
same,"viability, T/C","second compound 0.0316 µM, first compound 0.00316 µM",101%
same,"viability, T/C","second compound 0.0316 µM, first compound 0.01 µM",90.1%
same,"viability, T/C",[1],80.1%
same,"viability, T/C",[2],72.5%
same,"viability, T/C",[3],67.3%
same,"viability, T/C",[4],60.4%
same,"viability, T/C","second compound 0.1 µM, first compound 0.00316 µM",93.4%
same,"viability, T/C","second compound 0.1 µM, first compound 0.01 µM",64.7%
same,"viability, T/C",[5],57.1%
same,"viability, T/C",[6],56.4%
same,"viability, T/C",[7],51.4%
same,"viability, T/C",[8],55.4%
same,"viability, T/C","second compound 0.316 µM, first compound 0.00316 µM",57.3%
same,"viability, T/C","second compound 0.316 µM, first compound 0.01 µM",38.4%
same,"viability, T/C",[9],42.8%
same,"viability, T/C",[10],39.4%
same,"viability, T/C",[11],35.7%
same,"viability, T/C",[12],35.5%
same,"viability, T/C","second compound 1 µM, first compound 0.00316 µM",31.6%
same,"viability, T/C","second compound 1 µM, first compound 0.01 µM",23.8%
same,"viability, T/C",[13],29.6%
same,"viability, T/C",[14],19.9%
same,"viability, T/C",[15],25.4%
same,"viability, T/C",[16],21.1%
same,"viability, T/C","second compound 3.16 µM, first compound 0.00316 µM",14.6%
same,"viability, T/C","second compound 3.16 µM, first compound 0.01 µM",13%
same,"viability, T/C",[17],16.9%
same,"viability, T/C",[18],14.1%
same,"viability, T/C",[19],12.3%
same,"viability, T/C",[20],13.3%
same,"viability, T/C","second compound 10 µM, first compound 0.00316 µM",10.6%
same,"viability, T/C","second compound 10 µM, first compound 0.01 µM",12%
same,"viability, T/C",[21],8.73%
same,"viability, T/C",[22],9.27%
same,"viability, T/C",[23],10.4%
same,"viability, T/C",[24],6.75%
Cc1nc(N2CCC3(CC2)COC(C)C3N)c(CO)nc1Sc1ccnc(N)c1Cl (stereo unspecified) + Cc1c(S(C)(=O)=O)c(-c2cc(F)cc(N3CCN(c4ccc(NS(=O)(=O)c5ccc(NC(CCN6CCC(C(=O)OCCCP(=O)(O)O)CC6)CSc6ccccc6)c(S(=O)(=O)C(F)(F)F)c5)cc4)CC3)c2)c(-c2ccc(Cl)cc2)n1C(C)C,IC50,second compound 0.0316 µM,> 3000 nM
same,IC50,second compound 0.1 µM,177 nM
same,IC50,second compound 0.316 µM,< 9.49 nM
same,IC50,second compound 1 µM,< 9.49 nM
same,IC50,second compound 3.16 µM,< 9.49 nM
same,IC50,second compound 10 µM,< 9.49 nM
same,"viability, T/C","second compound 0.0316 µM, first compound 0.00949 µM",81.8%
same,"viability, T/C","second compound 0.0316 µM, first compound 0.03 µM",75%
same,"viability, T/C","second compound 0.0316 µM, first compound 0.0949 µM",57.6%
same,"viability, T/C","second compound 0.0316 µM, first compound 0.3 µM",61.2%
same,"viability, T/C","second compound 0.0316 µM, first compound 0.949 µM",58.6%
same,"viability, T/C","second compound 0.0316 µM, first compound 3 µM",51.7%
same,"viability, T/C","second compound 0.1 µM, first compound 0.00949 µM",77.4%
same,"viability, T/C","second compound 0.1 µM, first compound 0.03 µM",63.2%
same,"viability, T/C","second compound 0.1 µM, first compound 0.0949 µM",49.1%
same,"viability, T/C","second compound 0.1 µM, first compound 0.3 µM",54.4%
same,"viability, T/C","second compound 0.1 µM, first compound 0.949 µM",39.6%
same,"viability, T/C","second compound 0.1 µM, first compound 3 µM",39.9%
same,"viability, T/C","second compound 0.316 µM, first compound 0.00949 µM",42.6%
same,"viability, T/C","second compound 0.316 µM, first compound 0.03 µM",38.7%
same,"viability, T/C","second compound 0.316 µM, first compound 0.0949 µM",41.9%
same,"viability, T/C","second compound 0.316 µM, first compound 0.3 µM",29%
same,"viability, T/C","second compound 0.316 µM, first compound 0.949 µM",31.1%
same,"viability, T/C","second compound 0.316 µM, first compound 3 µM",22.3%
same,"viability, T/C","second compound 1 µM, first compound 0.00949 µM",26.3%
same,"viability, T/C","second compound 1 µM, first compound 0.03 µM",24.8%
same,"viability, T/C","second compound 1 µM, first compound 0.0949 µM",22.8%
same,"viability, T/C","second compound 1 µM, first compound 0.3 µM",26%
same,"viability, T/C","second compound 1 µM, first compound 0.949 µM",15.5%
same,"viability, T/C","second compound 1 µM, first compound 3 µM",14.1%
same,"viability, T/C","second compound 3.16 µM, first compound 0.00949 µM",16.7%
same,"viability, T/C","second compound 3.16 µM, first compound 0.03 µM",19.9%
same,"viability, T/C","second compound 3.16 µM, first compound 0.0949 µM",12.2%
same,"viability, T/C","second compound 3.16 µM, first compound 0.3 µM",12.5%
same,"viability, T/C","second compound 3.16 µM, first compound 0.949 µM",11.6%
same,"viability, T/C","second compound 3.16 µM, first compound 3 µM",8.25%
same,"viability, T/C","second compound 10 µM, first compound 0.00949 µM",12.8%
same,"viability, T/C","second compound 10 µM, first compound 0.03 µM",11.4%
same,"viability, T/C","second compound 10 µM, first compound 0.0949 µM",12.7%
same,"viability, T/C","second compound 10 µM, first compound 0.3 µM",7.14%
same,"viability, T/C","second compound 10 µM, first compound 0.949 µM",8.9%
same,"viability, T/C","second compound 10 µM, first compound 3 µM",8.72%
